Measurements: paper PMC11285368, “Chasing Red Herrings: Palladium Metal Salt Impurities Feigning KRAS Activity in Biochemical Assays” (Journal of Medicinal Chemistry, 2024)

Columns and labels:
Assay type in all cases: biochemical
off target (ext.) = experiment: WRN ADP-Glo, Target #4
Procedure: (§1) Metal salt solutions for the metal ion interference set (MIIS) were prepared as 10 mM stock solutions in DMSO (see Table 3). All metal salts used have been purchased at highest industrial grade.

off-target [1] = experiment: SOS1 AlphaScreen, Target #2
Procedure: as §1

off target = experiment: MDM2 AlphaScreen, Target #3
Procedure: as §1

NSD3 = biological target: T1, NSD3 (Homo sapiens, UniProt Q9BZ95); experiment: NSD3 TR-FRET; settings: read-out: Target #1 IC50
T1 sequence (Q9BZ95 1-1437): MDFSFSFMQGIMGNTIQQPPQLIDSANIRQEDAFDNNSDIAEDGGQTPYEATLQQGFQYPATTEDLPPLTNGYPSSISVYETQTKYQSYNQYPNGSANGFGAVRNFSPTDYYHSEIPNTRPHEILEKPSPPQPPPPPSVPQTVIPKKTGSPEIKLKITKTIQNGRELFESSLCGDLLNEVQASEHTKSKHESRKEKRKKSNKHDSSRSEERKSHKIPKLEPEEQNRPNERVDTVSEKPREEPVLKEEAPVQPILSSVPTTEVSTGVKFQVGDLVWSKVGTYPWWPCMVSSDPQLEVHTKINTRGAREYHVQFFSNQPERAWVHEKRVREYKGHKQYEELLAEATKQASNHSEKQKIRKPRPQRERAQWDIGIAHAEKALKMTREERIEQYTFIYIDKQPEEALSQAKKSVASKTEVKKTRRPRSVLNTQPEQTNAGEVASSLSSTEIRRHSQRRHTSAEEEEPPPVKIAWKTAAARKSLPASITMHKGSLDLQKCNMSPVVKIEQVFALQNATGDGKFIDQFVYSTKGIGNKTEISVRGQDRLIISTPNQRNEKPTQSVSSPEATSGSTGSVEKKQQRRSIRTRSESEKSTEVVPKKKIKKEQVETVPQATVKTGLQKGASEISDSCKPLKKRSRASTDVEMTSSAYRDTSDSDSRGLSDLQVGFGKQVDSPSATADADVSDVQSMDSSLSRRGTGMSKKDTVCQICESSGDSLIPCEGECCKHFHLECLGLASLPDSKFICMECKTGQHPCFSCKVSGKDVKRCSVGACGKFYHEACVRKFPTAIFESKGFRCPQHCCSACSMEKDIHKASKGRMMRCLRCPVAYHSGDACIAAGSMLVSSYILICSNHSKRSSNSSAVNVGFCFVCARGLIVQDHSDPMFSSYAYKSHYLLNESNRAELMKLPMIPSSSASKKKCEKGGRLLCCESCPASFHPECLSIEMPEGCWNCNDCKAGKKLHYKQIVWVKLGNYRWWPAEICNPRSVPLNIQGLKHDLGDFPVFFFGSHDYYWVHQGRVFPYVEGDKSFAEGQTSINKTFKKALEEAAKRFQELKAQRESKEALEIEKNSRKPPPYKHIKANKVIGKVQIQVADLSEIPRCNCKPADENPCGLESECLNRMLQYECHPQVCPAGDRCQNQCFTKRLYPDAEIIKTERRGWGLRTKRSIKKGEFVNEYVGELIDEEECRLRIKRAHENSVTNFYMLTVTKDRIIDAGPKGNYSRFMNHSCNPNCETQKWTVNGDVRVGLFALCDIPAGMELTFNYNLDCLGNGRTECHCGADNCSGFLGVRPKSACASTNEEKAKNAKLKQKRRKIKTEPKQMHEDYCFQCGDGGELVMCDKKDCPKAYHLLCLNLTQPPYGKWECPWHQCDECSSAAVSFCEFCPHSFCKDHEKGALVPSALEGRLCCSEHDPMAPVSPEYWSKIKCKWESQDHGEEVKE
Procedure: as §1

off-target [2] = experiment: FKBP51 AlphaScreen, Target #2
Procedure: as §1

SOS1 = biological target: T2, SOS1 (Homo sapiens, UniProt Q07889); experiment: SOS1 AlphaScreen, Target #1
T2 sequence (Q07889 1-1333): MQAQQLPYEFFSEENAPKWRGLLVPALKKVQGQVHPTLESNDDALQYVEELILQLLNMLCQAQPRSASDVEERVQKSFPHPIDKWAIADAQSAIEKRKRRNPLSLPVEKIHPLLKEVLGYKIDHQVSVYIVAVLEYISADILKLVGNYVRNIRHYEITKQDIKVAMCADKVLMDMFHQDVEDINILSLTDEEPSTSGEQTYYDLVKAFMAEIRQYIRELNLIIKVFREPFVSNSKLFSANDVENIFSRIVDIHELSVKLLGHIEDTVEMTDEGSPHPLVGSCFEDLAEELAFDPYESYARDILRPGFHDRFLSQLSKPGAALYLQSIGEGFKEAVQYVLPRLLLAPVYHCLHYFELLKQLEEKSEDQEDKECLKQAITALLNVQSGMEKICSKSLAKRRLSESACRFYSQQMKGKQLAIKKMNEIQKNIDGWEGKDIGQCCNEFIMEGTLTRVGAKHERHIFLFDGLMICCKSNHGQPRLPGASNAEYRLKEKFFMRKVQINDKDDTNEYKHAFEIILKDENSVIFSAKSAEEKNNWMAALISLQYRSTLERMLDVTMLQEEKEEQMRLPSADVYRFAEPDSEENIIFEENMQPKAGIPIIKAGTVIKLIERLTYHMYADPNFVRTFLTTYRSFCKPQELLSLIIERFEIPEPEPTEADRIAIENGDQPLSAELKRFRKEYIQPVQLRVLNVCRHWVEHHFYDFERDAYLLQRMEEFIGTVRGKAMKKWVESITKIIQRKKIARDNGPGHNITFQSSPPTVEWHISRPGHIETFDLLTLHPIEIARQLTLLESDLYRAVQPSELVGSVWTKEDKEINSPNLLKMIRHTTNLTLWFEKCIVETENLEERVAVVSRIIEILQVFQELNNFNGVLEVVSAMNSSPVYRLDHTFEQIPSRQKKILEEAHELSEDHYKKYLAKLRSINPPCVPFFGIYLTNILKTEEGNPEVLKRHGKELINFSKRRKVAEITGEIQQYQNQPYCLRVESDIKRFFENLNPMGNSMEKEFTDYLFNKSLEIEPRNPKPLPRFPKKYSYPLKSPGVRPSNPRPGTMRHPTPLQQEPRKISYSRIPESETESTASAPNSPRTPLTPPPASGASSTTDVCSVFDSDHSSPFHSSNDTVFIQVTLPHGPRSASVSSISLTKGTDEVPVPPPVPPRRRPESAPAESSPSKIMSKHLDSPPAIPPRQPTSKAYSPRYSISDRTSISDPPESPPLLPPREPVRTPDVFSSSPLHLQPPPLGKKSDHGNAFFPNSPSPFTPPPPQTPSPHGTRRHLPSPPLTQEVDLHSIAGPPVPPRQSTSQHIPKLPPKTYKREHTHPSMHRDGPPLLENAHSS
Procedure: as §1

BCL6 = BCL6 (Homo sapiens, UniProt P41182); experiment: BCL6 Fluorescence Polarization; settings: read-out: Target #1 IC50
Procedure: as §1

off-target [3] = experiment: UPA-UPAR AlphaScreen, Target #2
Procedure: as §1

Measured: IC50

CC(=O)[O-].[Ag+] [Ag (CH 3COO), Silver acetate]
< 1 µM: SOS1
1 to 10 µM: NSD3
not listed: off-target [3]
> 10 µM: all other assays above

O=[N+]([O-])[O-].O=[N+]([O-])[O-].O=[N+]([O-])[O-].[Al+3] [Al(NO3)3, Aluminum nitrate]
1 to 10 µM: off-target [2]
> 10 µM: all other assays above

[Cl][Au]([Cl])[Cl] [AuCl3, Gold(III) chloride]
1 to 10 µM: off-target [3]
< 1 µM: NSD3 | SOS1
> 10 µM: all other assays above

[Cl-].[Cl-].[Co+2] [CoCl2, Cobalt(II) chloride]
> 10 µM: all assays above

[Cl][Cu][Cl] [CuCl2, Copper(II) chloride]
1 to 10 µM: SOS1
> 10 µM: all other assays above

[Cl][Fe][Cl] [FeCl2, Iron(II) chloride]
> 10 µM: all assays above

[Cl][Fe]([Cl])[Cl] [FeCl3, Iron(III) chloride]
> 10 µM: all assays above

[Cl-].[Cl-].[Mg+2] [MgCl2, Magnesium chloride]
> 10 µM: all assays above

[Cl][Mn][Cl] [MnCl2, Manganese(II) chloride]
> 10 µM: all assays above

[Cl][Ni][Cl] [NiCl2, Nickel(II) chloride]
> 10 µM: all assays above

[Cl][Pd][Cl] [PdCl2, Palladium(II) chloride]
< 1 µM: off-target [3] | SOS1
> 10 µM: all other assays above

[Cl][Sn][Cl] [SnCl2, Tin(II) chloride]
< 1 µM: NSD3
> 10 µM: all other assays above

[Cl-].[Cl-].[Zn+2] [ZnCl2, Zinc(II) chloride]
> 10 µM: all assays above
